Assay results taken from PubChem BioAssay AID330 (DTP/NCI, 2004).
Where “and” joins values, the source holds several entries; their conditions need not be identical. Identical values can stand only once. Inconclusive results and toxic doses are left out.

Test system: P388 leukemia ip, CD2F1 mice, survival T/C
Experiment: NCI In Vivo Anticancer Drug Screen. Data for tumor model P388 Leukemia (intraperitoneal) in CD2F1 (CDF1) mice
Conditions: endpoint: median survival time, higher = longer survival
Summary of the method: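 Mice carrying the transplanted tumor received test compound or vehicle. Survival was recorded in each group, and the value is the treated-group measurement divided by that of the vehicle-treated control group.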

[1] = dose: 50.0 mg/kg/injection, schedule: Q01DX005 (ip), vehicle: Klucel (hydroxypropylcellulose) (HPC)
[2] = dose: 100.0 mg/kg/injection, schedule: Q01DX005 (ip), vehicle: Klucel (hydroxypropylcellulose) (HPC)
[3] = dose: 200.0 mg/kg/injection, schedule: Q01DX005 (ip), vehicle: Klucel (hydroxypropylcellulose) (HPC)
[4] = dose: 60.0 mg/kg/injection, schedule: Q01DX005 (ip), vehicle: Klucel (hydroxypropylcellulose) (HPC)
[5] = dose: 120.0 mg/kg/injection, schedule: Q01DX005 (ip), vehicle: Klucel (hydroxypropylcellulose) (HPC)
[6] = dose: 60.0 mg/kg/injection, schedule: Q01DX005 (ip), vehicle: saline with Tween-80
[7] = dose: 120.0 mg/kg/injection, schedule: Q01DX005 (ip), vehicle: saline with Tween-80
[8] = dose: 240.0 mg/kg/injection, schedule: Q01DX005 (ip), vehicle: saline with Tween-80
[9] = dose: 240.0 mg/kg/injection, schedule: Q01DX005 (ip), vehicle: Klucel (hydroxypropylcellulose) (HPC)
[10] = dose: 12.5 mg/kg/injection, schedule: Q01DX009 (ip), vehicle: saline with Tween-80
[11] = dose: 25.0 mg/kg/injection, schedule: Q01DX009 (ip), vehicle: saline with Tween-80
[12] = dose: 50.0 mg/kg/injection, schedule: Q01DX009 (ip), vehicle: saline with Tween-80
[13] = dose: 100.0 mg/kg/injection, schedule: Q04DX002 (ip), vehicle: saline with Tween-80
[14] = dose: 200.0 mg/kg/injection, schedule: Q04DX002 (ip), vehicle: saline with Tween-80
[15] = dose: 100.0 mg/kg/injection, schedule: Q01DX001 (ip), vehicle: saline with Tween-80
[16] = dose: 200.0 mg/kg/injection, schedule: Q01DX001 (ip), vehicle: saline with Tween-80

Structure (SMILES): CCC(C)([N+](=O)[O-])[N+](=O)[O-]
- T/C (dose: 0.19 mg/kg/injection, schedule: Q01DX009 (ip), vehicle: Klucel (hydroxypropylcellulose) (HPC)): 102 % of control
- T/C (dose: 0.39 mg/kg/injection, schedule: Q01DX009 (ip), vehicle: Klucel (hydroxypropylcellulose) (HPC)): 97 % of control
- T/C (dose: 0.78 mg/kg/injection, schedule: Q01DX009 (ip), vehicle: Klucel (hydroxypropylcellulose) (HPC)): 99 % of control and 96 % of control

Structure (SMILES): COc1c2c(c(C)c3ccc4ccccc4c13)CCN=C2
- T/C [1]: 103 % of control
- T/C [2]: 102 % of control
- T/C [3]: 113 % of control

Structure (SMILES): O=c1oc2nc(-c3ccccc3)[nH]c(=O)c2c(O)c1-c1ccccc1
- T/C [4]: 96 % of control
- T/C [5]: 96 % of control

Structure (SMILES): COC(=O)c1cc(-c2ccc(OC)cc2)c2c(=O)n(-c3ccccc3)[nH]c2n1
- T/C [6]: 101 % of control
- T/C [7]: 99 % of control
- T/C [8]: 94 % of control

Structure (SMILES): CCOC(=O)c1ccc(NC(=O)Nc2ccc(OC)cc2Cl)cc1
- T/C [4]: 91 % of control
- T/C [5]: 93 % of control
- T/C [9]: 96 % of control

Structure (SMILES): NC(CS(=O)(=O)O)C(=O)O (stereo unspecified)
- T/C (dose: 100.0 mg/kg/injection, schedule: Q04DX002 (ip), vehicle: saline): 105 % of control
- T/C (dose: 200.0 mg/kg/injection, schedule: Q04DX002 (ip), vehicle: saline): 96 % of control

Structure (SMILES): Cc1c2c(n(C)c1C)C(=O)C=CC2=O
- T/C (dose: 50.0 mg/kg/injection, schedule: Q01DX001 (ip), vehicle: Klucel (hydroxypropylcellulose) (HPC)): 100 % of control
- T/C (dose: 100.0 mg/kg/injection, schedule: Q01DX001 (ip), vehicle: Klucel (hydroxypropylcellulose) (HPC)): 113 % of control

Structure (SMILES): COC(=O)c1nc(N)nc(C(=O)OC)c1C(=O)c1ccc2ccccc2c1
- T/C [4]: 102 % of control
- T/C [5]: 101 % of control

Structure (SMILES): C[CH2][Pb]([Br])([CH2]C)[CH2]C
- T/C (dose: 3.12 mg/kg/injection, schedule: Q01DX009 (ip), vehicle: saline with Tween-80): 105 % of control and 97 % of control
- T/C (dose: 6.25 mg/kg/injection, schedule: Q01DX009 (ip), vehicle: saline with Tween-80): 103 % of control and 107 % of control
- T/C [10]: 113 % of control and 114 % of control
- T/C [11]: 106 % of control
- T/C [12]: 107 % of control

Structure (SMILES): CCCCCCCCCCCCCCCCOc1ccc2c(c1OCCCCCCCCCCCCCCCC)OC(C)(C)C=C2C
- T/C [13]: 88 % of control
- T/C [14]: 86 % of control

Structure (SMILES): C=C(Br)c1ccc2c(c1)OCO2
- T/C [6]: 106 % of control
- T/C [7]: 102 % of control
- T/C [8]: 102 % of control

Structure (SMILES): C=C1CCN(c2ccccc2Cl)C1=O
- T/C (dose: 4.0 mg/kg/injection, schedule: Q01DX009 (ip), vehicle: saline + alcohol): 100 % of control and 103 % of control and 109 % of control
- T/C (dose: 8.0 mg/kg/injection, schedule: Q01DX009 (ip), vehicle: saline + alcohol): 100 % of control and 104 % of control and 106 % of control
- T/C (dose: 16.0 mg/kg/injection, schedule: Q01DX009 (ip), vehicle: saline + alcohol): 100 % of control and 112 % of control
- T/C (dose: 32.0 mg/kg/injection, schedule: Q01DX009 (ip), vehicle: saline + alcohol): 99 % of control and 100 % of control and 107 % of control
- T/C (dose: 64.0 mg/kg/injection, schedule: Q01DX009 (ip), vehicle: saline + alcohol): 104 % of control and 105 % of control

Structure (SMILES): N#CCc1csc2ccccc12
- T/C [1]: 117 % of control
- T/C [2]: 115 % of control
- T/C [3]: 112 % of control

Structure (SMILES): CCP(CC)(c1ccccc1)=c1c(=O)c(Cl)c(Cl)c(=O)c1=O
- T/C (dose: 6.25 mg/kg/injection, schedule: Q01DX005 (ip), vehicle: Klucel (hydroxypropylcellulose) (HPC)): 100 % of control
- T/C (dose: 12.5 mg/kg/injection, schedule: Q01DX005 (ip), vehicle: Klucel (hydroxypropylcellulose) (HPC)): 102 % of control
- T/C (dose: 25.0 mg/kg/injection, schedule: Q01DX005 (ip), vehicle: Klucel (hydroxypropylcellulose) (HPC)): 100 % of control

Structure (SMILES): CCOP(=O)(OCC)/C(C#N)=C\c1ccc(N(C)C)cc1
- T/C [15]: 100 % of control
- T/C [16]: 104 % of control
- T/C (dose: 400.0 mg/kg/injection, schedule: Q01DX001 (ip), vehicle: saline with Tween-80): 100 % of control

Structure (SMILES): COC(=O)NC1=Nc2ccccc2N(C(=O)C(C)C)S1
- T/C [1]: 100 % of control
- T/C [2]: 101 % of control
- T/C [3]: 97 % of control

Structure (SMILES): CC(C)(C)/C=C/N=NNc1cc2ccccc2s1
- T/C [4]: 100 % of control
- T/C [5]: 105 % of control
- T/C [9]: 108 % of control

Structure (SMILES): COc1cc2cc(-c3ccccn3)nc(N)c2cc1OC
- T/C [6]: 100 % of control
- T/C [7]: 101 % of control

Structure (SMILES): COc1cccc2c1C(=O)c1c(O)c3c(c(O)c1C2=O)C[C@@](O)(C(=O)CO)C[C@@H]3OC1CC(NC(=O)C(N)CC(C)C)C(O)C(C)O1 (stereo partly specified)
- T/C (dose: 3.12 mg/kg/injection, schedule: Q04DX003 (ip), vehicle: saline): 105 % of control
- T/C (dose: 6.25 mg/kg/injection, schedule: Q04DX003 (ip), vehicle: saline): 118 % of control
- T/C (dose: 25.0 mg/kg/injection, schedule: Q04DX003 (ip), vehicle: saline): 150 % of control

Structure (SMILES): C=CCC(C(C)=O)C(=O)OC(C)(C)C (stereo unspecified)
- T/C (dose: 50.0 mg/kg/injection, schedule: Q01DX005 (ip), vehicle: saline): 101 % of control
- T/C (dose: 100.0 mg/kg/injection, schedule: Q01DX005 (ip), vehicle: saline): 104 % of control
- T/C (dose: 200.0 mg/kg/injection, schedule: Q01DX005 (ip), vehicle: saline): 111 % of control

Structure (SMILES): CC(C)OC(=O)Nc1ccccc1Cl
- T/C [10]: 104 % of control
- T/C [11]: 100 % of control
- T/C [12]: 109 % of control

Structure (SMILES): CCCCCC(C[N+]1(C)CCOCC1)C(=O)/C=C/c1ccccc1 (stereo unspecified)
- T/C [10]: 96 % of control
- T/C (dose: 12.5 mg/kg/injection, schedule: Q01DX009 (ip), vehicle: saline): 108 % of control
- T/C [11]: 108 % of control
- T/C (dose: 25.0 mg/kg/injection, schedule: Q01DX009 (ip), vehicle: saline): 108 % of control

Structure (SMILES): CC(C)=NOCc1ccccc1
- T/C (dose: 2.5 mg/kg/injection, schedule: Q01DX009 (ip), vehicle: Klucel (hydroxypropylcellulose) (HPC)): 119 % of control
- T/C (dose: 5.0 mg/kg/injection, schedule: Q01DX009 (ip), vehicle: Klucel (hydroxypropylcellulose) (HPC)): 120 % of control
- T/C (dose: 10.0 mg/kg/injection, schedule: Q01DX009 (ip), vehicle: Klucel (hydroxypropylcellulose) (HPC)): 117 % of control
- T/C (dose: 50.0 mg/kg/injection, schedule: Q01DX009 (ip), vehicle: Klucel (hydroxypropylcellulose) (HPC)): 94 % of control
- T/C (dose: 100.0 mg/kg/injection, schedule: Q01DX009 (ip), vehicle: Klucel (hydroxypropylcellulose) (HPC)): 98 % of control

Structure (SMILES): CC(C)(C)OC(=O)NC(CCC(=O)O)(Cc1ccccc1)C(=O)NC(CCC(=O)OCc1ccccc1)C(=O)OCc1ccccc1 (stereo unspecified)
- T/C (dose: 6.25 mg/kg/injection, schedule: Q01DX005 (ip), vehicle: saline with Tween-80): 98 % of control
- T/C (dose: 12.5 mg/kg/injection, schedule: Q01DX005 (ip), vehicle: saline with Tween-80): 96 % of control
- T/C (dose: 25.0 mg/kg/injection, schedule: Q01DX005 (ip), vehicle: saline with Tween-80): 105 % of control

Structure (SMILES): C=CCCn1ccnc1[N+](=O)[O-]
- T/C (dose: 12.5 mg/kg/injection, schedule: Q01DX009 (ip), vehicle: water): 94 % of control
- T/C (dose: 25.0 mg/kg/injection, schedule: Q01DX009 (ip), vehicle: water): 93 % of control
- T/C (dose: 50.0 mg/kg/injection, schedule: Q01DX009 (ip), vehicle: water): 100 % of control

Structure (SMILES): Cc1ccc2cc3c(ccc4ccccc43)c3c2c1CC3
- T/C (dose: 25.0 mg/kg/injection, schedule: Q04DX003 (ip), vehicle: saline with Tween-80): 113 % of control
- T/C (dose: 33.0 mg/kg/injection, schedule: Q01DX009 (ip), vehicle: saline with Tween-80): 121 % of control
- T/C (dose: 100.0 mg/kg/injection, schedule: Q04DX003 (ip), vehicle: saline with Tween-80): 150 % of control
- T/C (dose: 300.0 mg/kg/injection, schedule: Q04DX003 (ip), vehicle: saline with Tween-80): 152 % of control
- T/C (dose: 400.0 mg/kg/injection, schedule: Q04DX003 (ip), vehicle: saline with Tween-80): 172 % of control

Structure (SMILES): CCOC(=O)/N=[N+](\[O-])c1cccc([N+](=O)[O-])c1
- T/C [15]: 103 % of control
- T/C [16]: 93 % of control

Structure (SMILES): CCCN1C(=O)C(C)N(S(=O)(=O)c2ccc(-n3nc(C)cc3C)cc2)C1=S (stereo unspecified)
- T/C [13]: 94 % of control
- T/C [14]: 102 % of control
- T/C (dose: 400.0 mg/kg/injection, schedule: Q04DX002 (ip), vehicle: saline with Tween-80): 100 % of control
